Reference: US7541021B2, “Process for preparation of a sterile suspension of corticosteroid particles for the administration by inhalation” (Chiesi Farmaceutici S.p.A., priority 2002, dated 2009)

How the values were obtained:
[1] = Particle size of micronised BDP by Malvern apparatus; assay type: physicochemical; settings: micronised powder
Experimental: The dimensional characteristics of the particles were also evaluated by using a Malvern apparatus. This type of test exploits the diffraction of a laser beam by the particles to determine the size distribution of the particles in suspension. The parameter considered is the median volumetric diameter in μm of 10%, 50% and 90% of the particles, expressed as d(v,0.1), d(v,0.5) and d(v,0.9) respectively, which is determined by assuming that the particles have a geometrical shape equivalent to a sphere. Advantageously, in the suspension formulation of the invention, the d(v,0.9) after sonication is less than 8 μm and the d(v,0.5) is comprised between 2 and 3.5 μm.

[2] = Apparent volumes and densities (European Pharmacopoeia 2.9.15) of micronised BDP powder; assay type: physicochemical; settings: for dv, apparent density before settling: 100 g in 250 ml cylinder; for ds, apparent density after packing: after compacting
Experimental: The apparent volumes and densities were measured according to the European Pharmacopoeia, 4th edition, paragraph 2.9.15. 100 g of the test substance is introduced into a dry 250 ml cylinder without compacting it. The unsettled apparent volume (Vo) is read off, then 10, 500 and 1250 taps are performed, and volumes (V10, V500 and V1250) are read. If the difference between V500 and V1250 is greater than 2 ml, 1250 further taps are performed (V2500).

[3] = system: microsomes of human lung cells; assay: Formation of fatty acid esters of 17-BMP in lung microsomes; assay type: in vitro ADME
[4] = Elimination of 17-BMP after nebulisation of aqueous BDP suspensions versus pressurised aerosol suspensions; assay type: in vivo; settings: after aqueous suspensions of BDP by nebulisation, compared with suspension formulations as pressurised aerosols
Excerpt: It has also been observed that due to the formation of the monoester in the lung cells, the elimination half-life and the mean residence time of 17-BMP are longer after the administration of aqueous suspensions of BDP by nebulisation than formulations in suspension administered in the form of pressurised aerosols.

SMILES	Particle size d (v, 0.1) [1]	Particle size d (v, 0.5) [1]	Particle size d (v, 0.9) [1]	Cs, packing capacity (difference between V10 and V500) [2]	dv, apparent density before settling [2]	ds, apparent density after packing [2]	Formation of stable esters with long-chain fatty acids such as oleic acid [3]	elimination half-life [4]	mean residence time [4]
CCC(=O)OCC(=O)[C@@]1(OC(=O)CC)[C@@H](C)C[C@H]2[C@@H]3CCC4=CC(=O)C=C[C@]4(C)[C@@]3(Cl)[C@@H](O)C[C@@]21C [Non-irradiated BDP, beclomethasone dipropionate]	0.49 μm	1.91 μm	5.98 μm	16 mL	0.21 g/mL	0.27 g/mL	–	–	–
CCC(=O)OCC(=O)[C@@]1(OC(=O)CC)[C@@H](C)C[C@H]2[C@@H]3CCC4=CC(=O)C=C[C@]4(C)[C@@]3(Cl)[C@@H](O)C[C@@]21C [Irradiated BDP, beclomethasone dipropionate]	0.48 μm	1.81 μm	5.73 μm	12 mL	0.32 g/mL	0.42 g/mL	–	–	–
CCC(=O)O[C@]1(C(=O)CO)[C@@H](C)C[C@H]2[C@@H]3CCC4=CC(=O)C=C[C@]4(C)[C@@]3(Cl)[C@@H](O)C[C@@]21C [17-BMP, beclomethasone-17-monopropionate]	–	–	–	–	–	–	are formed	longer	longer
